In patent US11882828B2, “Mosquito vector control compositions, methods and products utilizing same” (priority 2015, dated 2024):
Read-outs that look alike come from different tables or passages of the source.

What was measured:
Anopheles stephensi [1] = experiment: Example B7: evaluation of insecticide impregnated polymer surfaces; format: in vivo; conditions: AI content 2 wt %; for knock-down: after one hour; for mortality: 24 hours after exposure
Source text: (§1) Preparation of polymeric sheets: Certain methoxyacrylate were Impregnated into three polymers: LDPE (low density polyethylene), HDPE (high density polyethylene) and PP (polypropylene) in different concentrations by mixing the respective polymer with a compound at high temperatures and the resultant polymeric material were then mould into thin discs or plaques.
(§2) Twenty four hours prior to the relevant assessment intervals, three to five day old non-blood fed adult mosquitoes were taken from the culture and lightly anaesthetised with carbon dioxide. Ten females were selected and placed in a 250 ml plastic cup, retained with a net lid, provided with a 10% sucrose solution soaked in a cotton wool bung and held under culturing environmental conditions.
(§3) After twenty four hours, impregnated polymer sheets (measuring about 150 mm in diameter and about 0.1 mm in thickness) were removed from storage and wrapped around the glazed side of an 11 cm ceramic tile and held in place with an elastic band. A cup of the pre-selected mosquitoes were again lightly anaesthetised with carbon dioxide and transferred from the holding cup to the base of a 9 cm plastic Petri dish. The relevant impregnated polymer sheet was placed over the Petri dish and held in place with an elastic band. Once the mosquitoes had recovered from the anaesthetic, ca. 1 minute, the impregnated polymer sheet was placed on a holding rack, such that treated side was at an angle of […] to the horizontal.
(§4) After one hour an assessment of mosquito knockdown was made. A mosquito was said to be knocked down if it was unable to right itself once it had fallen over. The mosquitoes were lightly anaesthetised again, and removed from the Petri dish exposure chamber and returned to the holding cups. The mosquitoes were supplied with a 10% sucrose solution soaked in a cotton wool bung and held under culturing environmental conditions. An assessment of mortality was made 24 hours after exposure. A mosquito was said to be dead if it is unable to right itself once it had fallen over.

Aedes aegypti [2] = experiment: as above; format: in vivo; conditions: AI content 2 wt %; for knock-down: after one hour; for mortality: 24 hours after exposure
Source text: as §1, §2, §3, §4

Anopheles stephensi [3] = experiment: whole plant or invertebrate; conditions: Anopheles stephensi, 48 h
Description: (§5) The individual wells of six (6) well tissue culture plates were treated with 250 μl of an ethanol solution containing a test compound at a defined concentration. Once the deposits were dry, ten non-blood fed adult female Aedes aegypti or Anopheles stephensi (each between two to five day old) were added to each well, and sustained with a 10% sucrose solution in a cotton wool plug.
(§6) Assessment of the mortality was carried out at 48 hours.
(§7) Each treatment was replicated twice, with the mean mortality recorded.

Aedes aegypti [4] = experiment: whole plant or invertebrate; conditions: Aedes aegypti, 48 h
Description: as §5, §6, §7

[5] = system: Aedes aegypti (Yellow fever mosquito); experiment: whole plant or invertebrate; conditions: Aedes aegypti; for pest or weed control at 20 ppm: 1 h, read-out: Knockdown; for mortality at 20 ppm: 48 h
Description: […] Once the deposits were dry, five non-blood fed adult female Aedes aegypti (between two to five days old) were added to each well, and sustained with a 10% sucrose solution in a cotton wool plug. Assessment of the knockdown after 1 hour, and mortality after 48 hours was carried out.
(§8) In case of multiple tests, the mean value is reported.

[6] = system: Anopheles stephensi (Indian malaria mosquito); experiment: whole plant or invertebrate; conditions: Anopheles stephensi; for pest or weed control at 20 ppm: 1 h, read-out: Knockdown; for mortality at 20 ppm: 48 h
Description: […] Once the deposits were dry, five non-blood fed adult female Anopheles stephensi (between two to five days old) were added to each well, and sustained with a 10% sucrose solution in a cotton wool plug. Assessment of the knockdown after 1 hour, and mortality after 48 hours was carried out.
as §8

FUMOZ = experiment: Example B5: bottle based cross resistance study (CDC bottle assay); format: in vivo; conditions: Anopheles funestus, 24 h
Description: (§9) Based on the “CDC bottle assay” (described at http://www.cdc.gov/malaria/resources/pdf/fsp/ir_manual/ir_cdc_bioassay_en.pdf) 1 ml of ethanol containing a test compound at a defined concentration was added to a 250 ml glass bottle and the bottles were placed on a rolling table to coat the inner surfaces as the solvent evaporated. Once dry, twenty five non-blood fed adult female mosquitoes of the appropriate species and strains (each three day old) were aspirated from the stock culture and gently blown into the exposure bottles. The lid of the bottle was replaced and the bottle placed upright out of direct sun light under standard culture conditions, nominally 28C and 60-80% relative humidity.
(§10) A stopwatch was started, and the assessment of the knock-down were made after 15 minutes and 60 minutes. A mosquito was said to be knocked down if it was unable to stand, following the CDC definition. The bottles were replaced in an upright position when not being assessed.
(§11) After one hour the mosquitoes were carefully removed from the bottle with an aspirator and placed in a recovery cup. The mosquitoes were supplied with a 10% sucrose solution on a cotton wool bung, and stored under culture conditions. Assessments of the mortality were made after 24 hours.
(§12) Each treatment was replicated a minimum of four times, with the mean knockdown or mortality recorded. In each study, a set of bottles was infested with a known insecticide susceptible strain of mosquitoes from the same genera as the resistant strains.

An. Gambiae Kisumu sus = experiment: as above; format: in vivo; conditions: Anopheles gambiae, 24 h
Description: as §9, §10, §11, §12

VK7 = experiment: as above; format: in vivo; conditions: Anopheles coluzzii, Table B5b, after 24 hours
Description: as §9, §10, §11, §12

[7] = HDPE, polymer 8 to 12 weeks old
[8] = LDPE, polymer 8 to 12 weeks old
[9] = Table B5b, 25 ppm, after 24 hours, FUMOZ
[10] = Table B5b, 25 ppm, after 24 hours, Kisumu sus

SMILES	knock-down (Anopheles stephensi [1]; HDPE, polymer 2 to 4 weeks old) [%]	knock-down (Anopheles stephensi [1]; [7]) [%]	knock-down (Anopheles stephensi [1]; LDPE, polymer 2 to 4 weeks old) [%]	knock-down (Anopheles stephensi [1]; [8]) [%]	knock-down (Anopheles stephensi [1]; PP, polymer 2 to 4 weeks old) [%]	knock-down (Anopheles stephensi [1]; PP, polymer 8 to 12 weeks old) [%]	knock-down (Aedes aegypti [2]; HDPE, polymer 2 to 4 weeks old) [%]	knock-down (Aedes aegypti [2]; HDPE, polymer 6 to 8 weeks old) [%]	knock-down (Aedes aegypti [2]; LDPE, polymer 2 to 4 weeks old) [%]	knock-down (Aedes aegypti [2]; LDPE, polymer 6 to 8 weeks old) [%]	knock-down (Aedes aegypti [2]; PP, polymer 2 to 4 weeks old) [%]	knock-down (Aedes aegypti [2]; PP, polymer 6 to 8 weeks old) [%]	mortality at 5 ppm (Anopheles stephensi [3]) [%]	mortality at 5 ppm (Aedes aegypti [4]) [%]	pest or weed control at 20 ppm [5] [%]	mortality at 20 ppm [5] [%]	pest or weed control at 20 ppm [6] [%]	mortality at 20 ppm [6] [%]	mortality at 25 ppm (FUMOZ; [9]) [%]	mortality at 25 ppm (An. Gambiae Kisumu sus; [10]) [%]	also measured
CO/C=C(/C(=O)OC)c1ccccc1Oc1ncnc(C(C)(C)C)n1 [Compound 5, Methyl (E)-2-[2-[(4-tert-butyl-1,3,5-triazin-2-yl)oxy]phenyl]-3-methoxy-prop-2-enoate]	100	50	80	70	90	20	33	60	13	85	80	70	100	85	100	100	100	100	–	–	–
CO/C=C(/C(=O)OC)c1ccccc1Oc1cc(C(F)(F)F)ccn1 [Compound 8, Methyl (E)-2-[2-[[4-(trifluoromethyl)-2-pyridyl]oxy]phenyl]-3-methoxy-prop-2-enoate]	100	100	100	90	–	–	100	100	100	100	–	–	100	100	67	100	100	100	56	61	mortality at 25 ppm (VK7; 24 h): 20%; mortality (Anopheles stephensi [1]; HDPE, polymer 2 to 4 weeks old): 100%; mortality (Anopheles stephensi [1]; [7]): 80%; mortality (Anopheles stephensi [1]; LDPE, polymer 2 to 4 weeks old): 100%; mortality (Anopheles stephensi [1]; [8]): 100%; mortality (Aedes aegypti [2]; HDPE, polymer 2 to 4 weeks old): 53%; mortality (Aedes aegypti [2]; HDPE, polymer 6 to 8 weeks old): 75%; mortality (Aedes aegypti [2]; LDPE, polymer 2 to 4 weeks old): 100%; mortality (Aedes aegypti [2]; LDPE, polymer 6 to 8 weeks old): 100%
CO/C=C(/C(=O)OC)c1ccccc1CO/N=C(\C)C(C)C [Compound 12]	100	100	100	30	100	100	97	100	100	95	100	100	100	43	100	100	100	100	–	–	–
CO/C=C(/C(=O)OC)c1ccccc1Oc1ncc(C(F)(F)F)s1 [Compound 13, Methyl (E)-3-methoxy-2-[2-[5-(trifluoromethyl)thiazol-2-yl]oxyphenyl]prop-2-enoate]	100	90	100	100	100	100	100	100	100	100	100	100	100	78	100	100	100	100	70	94	mortality at 25 ppm (VK7; 24 h): 61%; mortality (Anopheles stephensi [1]; HDPE, polymer 2 to 4 weeks old): 100%; mortality (Anopheles stephensi [1]; [7]): 0%; mortality (Anopheles stephensi [1]; LDPE, polymer 2 to 4 weeks old): 100%; mortality (Anopheles stephensi [1]; [8]): 80%; mortality (Anopheles stephensi [1]; PP, polymer 2 to 4 weeks old): 100%; mortality (Anopheles stephensi [1]; PP, polymer 8 to 12 weeks old): 10%; mortality (Aedes aegypti [2]; HDPE, polymer 2 to 4 weeks old): 73%; mortality (Aedes aegypti [2]; HDPE, polymer 6 to 8 weeks old): 65%; mortality (Aedes aegypti [2]; LDPE, polymer 2 to 4 weeks old): 93%; mortality (Aedes aegypti [2]; LDPE, polymer 6 to 8 weeks old): 95%; mortality (Aedes aegypti [2]; PP, polymer 2 to 4 weeks old): 87%; mortality (Aedes aegypti [2]; PP, polymer 6 to 8 weeks old): 35%
CO/C=C(/C(=O)OC)c1ccccc1Oc1cc(C(F)(F)C(F)(F)F)ncn1 [Compound 17]	–	–	–	–	–	–	–	–	–	–	–	–	55	5	100	100	100	100	–	–	knock-down (Aedes aegypti [2]; LDPE, polymer 4 to 6 weeks old): 100%
CO/C=C(/C(=O)OC)c1ccccc1CO/N=C(\C)OC [Compound 22]	100	90	100	80	100	100	93	95	100	100	100	100	100	100	100	100	100	100	–	–	mortality at 25 ppm (FUMOZ): 68%; mortality at 25 ppm (An. Gambiae Kisumu sus): 100%; mortality at 25 ppm (VK7; read-out: Mortality): 96%
